Assay results as given in ChEMBL document CHEMBL1123701, “Synthesis and quantitative structure-activity relationship analysis of N-triiodoallyl- and N-iodopropargylazoles. New antifungal agents” (1987).
Converted amounts (≈) assume the structure as drawn.

Tested on: Cryptococcus neoformans
Test: Antifungal activity against Cryptococcus neoformans Cr-1 strain
Assay type: functional

| SMILES | MIC [µg/mL] |
| --- | --- |
| COc1ccc(-c2nnn(CC(I)=C(I)I)n2)cc1 | > 100 |
| N#Cc1ccc(-c2nnn(CC#CI)n2)cc1 | 50 (≈ 149 µM) |
| FC(F)(F)c1cccc(-c2nnn(CC#CI)n2)c1 | 1.56 (≈ 4.13 µM) |
| COc1ccc(Cl)cc1C(=O)c1cccn1CC(I)=C(I)I | 25 (≈ 38.3 µM) |
| Clc1cccc(-c2nnn(CC#CI)n2)c1 | 0.39 (≈ 1.13 µM) |
| IC#CCn1nccn1 | 1.56 (≈ 6.69 µM) |
| IC#CCn1ccnc1 | 6.25 (≈ 26.9 µM) |
| NC(=O)c1ccc(-c2nnn(CC#CI)n2)cc1 | 12.5 (≈ 35.4 µM) |
| O=[N+]([O-])c1ncnn1CC#CI | 0.78 (≈ 2.81 µM) |
| O=[N+]([O-])c1cccn1CC#CI | 0.39 (≈ 1.41 µM) |
| IC#CCn1cccn1 | 0.78 (≈ 3.36 µM) |
| CC(C)c1nnn(CC#CI)n1 | 3.13 (≈ 11.3 µM) |
| Cc1ccnn1CC#CI | 1.56 (≈ 6.34 µM) |
| O=[N+]([O-])c1ccc(-c2nnn(CC#CI)n2)cc1 | 3.13 (≈ 8.81 µM) |
| O=[N+]([O-])c1c(Cl)c(Cl)n(CC(I)=C(I)I)c1Cc1cc(Cl)cc(Cl)c1O | > 25 |
| Cc1nnnn1CC#CI | 3.13 (≈ 12.6 µM) |

Tested on: Candida albicans
Test: Antifungal activity against Candida albicans C-A-24 strain
Assay type: functional

| SMILES | MIC [µg/mL] |
| --- | --- |
| COc1ccc(-c2nnn(CC(I)=C(I)I)n2)cc1 | > 100 |
| N#Cc1ccc(-c2nnn(CC#CI)n2)cc1 | 50 (≈ 149 µM) |
| FC(F)(F)c1cccc(-c2nnn(CC#CI)n2)c1 | 3.13 (≈ 8.28 µM) |
| COc1ccc(Cl)cc1C(=O)c1cccn1CC(I)=C(I)I | 25 (≈ 38.3 µM) |
| Clc1cccc(-c2nnn(CC#CI)n2)c1 | 0.78 (≈ 2.26 µM) |
| IC#CCn1nccn1 | 1.56 (≈ 6.69 µM) |
| IC#CCn1ccnc1 | 12.5 (≈ 53.9 µM) |
| NC(=O)c1ccc(-c2nnn(CC#CI)n2)cc1 | > 100 |
| O=[N+]([O-])c1ncnn1CC#CI | 3.13 (≈ 11.3 µM) |
| O=[N+]([O-])c1cccn1CC#CI | 0.78 (≈ 2.83 µM) |
| IC#CCn1cccn1 | 3.13 (≈ 13.5 µM) |
| CC(C)c1nnn(CC#CI)n1 | 1.56 (≈ 5.65 µM) |
| Cc1ccnn1CC#CI | 6.25 (≈ 25.4 µM) |
| O=[N+]([O-])c1ccc(-c2nnn(CC#CI)n2)cc1 | 25 (≈ 70.4 µM) |
| O=[N+]([O-])c1c(Cl)c(Cl)n(CC(I)=C(I)I)c1Cc1cc(Cl)cc(Cl)c1O | > 25 |
| Cc1nnnn1CC#CI | 6.25 (≈ 25.2 µM) |

Tested on: Aspergillus fumigatus
Test: Antifungal activity against Aspergillus fumigatus Saito strain
Assay type: functional

| SMILES | MIC [µg/mL] |
| --- | --- |
| COc1ccc(-c2nnn(CC(I)=C(I)I)n2)cc1 | 25 (≈ 42.1 µM) |
| N#Cc1ccc(-c2nnn(CC#CI)n2)cc1 | 6.25 (≈ 18.7 µM) |
| FC(F)(F)c1cccc(-c2nnn(CC#CI)n2)c1 | 3.13 (≈ 8.28 µM) |
| COc1ccc(Cl)cc1C(=O)c1cccn1CC(I)=C(I)I | 25 (≈ 38.3 µM) |
| Clc1cccc(-c2nnn(CC#CI)n2)c1 | 0.78 (≈ 2.26 µM) |
| IC#CCn1nccn1 | 0.78 (≈ 3.35 µM) |
| IC#CCn1ccnc1 | 12.5 (≈ 53.9 µM) |
| NC(=O)c1ccc(-c2nnn(CC#CI)n2)cc1 | > 100 |
| O=[N+]([O-])c1ncnn1CC#CI | 0.39 (≈ 1.4 µM) |
| O=[N+]([O-])c1cccn1CC#CI | 0.39 (≈ 1.41 µM) |
| IC#CCn1cccn1 | 0.78 (≈ 3.36 µM) |
| CC(C)c1nnn(CC#CI)n1 | 0.78 (≈ 2.83 µM) |
| Cc1ccnn1CC#CI | 0.78 (≈ 3.17 µM) |
| O=[N+]([O-])c1ccc(-c2nnn(CC#CI)n2)cc1 | 6.25 (≈ 17.6 µM) |
| O=[N+]([O-])c1c(Cl)c(Cl)n(CC(I)=C(I)I)c1Cc1cc(Cl)cc(Cl)c1O | > 25 |
| Cc1nnnn1CC#CI | 6.25 (≈ 25.2 µM) |

Tested on: Trichophyton benhamiae
Test: Antifungal activity towards Trichophyton mentagrophytes 530324 strain
Assay type: functional, Arthroderma benhamiae

| SMILES | MIC [µg/mL] |
| --- | --- |
| COc1ccc(-c2nnn(CC(I)=C(I)I)n2)cc1 | 25 (≈ 42.1 µM) |
| N#Cc1ccc(-c2nnn(CC#CI)n2)cc1 | 3.13 (≈ 9.34 µM) |
| FC(F)(F)c1cccc(-c2nnn(CC#CI)n2)c1 | 0.1 (≈ 0.264 µM) |
| COc1ccc(Cl)cc1C(=O)c1cccn1CC(I)=C(I)I | 12.5 (≈ 19.1 µM) |
| Clc1cccc(-c2nnn(CC#CI)n2)c1 | 0.1 (≈ 0.29 µM) |
| IC#CCn1nccn1 | 0.39 (≈ 1.67 µM) |
| IC#CCn1ccnc1 | 6.25 (≈ 26.9 µM) |
| NC(=O)c1ccc(-c2nnn(CC#CI)n2)cc1 | 6.25 (≈ 17.7 µM) |
| O=[N+]([O-])c1ncnn1CC#CI | 0.39 (≈ 1.4 µM) |
| O=[N+]([O-])c1cccn1CC#CI | 0.1 (≈ 0.362 µM) |
| IC#CCn1cccn1 | 0.39 (≈ 1.68 µM) |
| CC(C)c1nnn(CC#CI)n1 | 0.78 (≈ 2.83 µM) |
| Cc1ccnn1CC#CI | 0.39 (≈ 1.59 µM) |
| O=[N+]([O-])c1ccc(-c2nnn(CC#CI)n2)cc1 | 0.2 (≈ 0.563 µM) |
| O=[N+]([O-])c1c(Cl)c(Cl)n(CC(I)=C(I)I)c1Cc1cc(Cl)cc(Cl)c1O | 25 (≈ 32.3 µM) |
| Cc1nnnn1CC#CI | 3.13 (≈ 12.6 µM) |

Tested on: Trichophyton interdigitale
Test: Antifungal activity towards Trichophyton interdigitale
Assay type: functional

| SMILES | MIC [µg/mL] |
| --- | --- |
| COc1ccc(-c2nnn(CC(I)=C(I)I)n2)cc1 | > 100 |
| N#Cc1ccc(-c2nnn(CC#CI)n2)cc1 | 1.56 (≈ 4.66 µM) |
| FC(F)(F)c1cccc(-c2nnn(CC#CI)n2)c1 | 0.1 (≈ 0.264 µM) |
| COc1ccc(Cl)cc1C(=O)c1cccn1CC(I)=C(I)I | 12.5 (≈ 19.1 µM) |
| Clc1cccc(-c2nnn(CC#CI)n2)c1 | 0.1 (≈ 0.29 µM) |
| IC#CCn1nccn1 | 0.78 (≈ 3.35 µM) |
| IC#CCn1ccnc1 | 6.25 (≈ 26.9 µM) |
| NC(=O)c1ccc(-c2nnn(CC#CI)n2)cc1 | 3.13 (≈ 8.86 µM) |
| O=[N+]([O-])c1ncnn1CC#CI | 0.78 (≈ 2.81 µM) |
| O=[N+]([O-])c1cccn1CC#CI | 0.39 (≈ 1.41 µM) |
| IC#CCn1cccn1 | 0.39 (≈ 1.68 µM) |
| CC(C)c1nnn(CC#CI)n1 | 0.78 (≈ 2.83 µM) |
| Cc1ccnn1CC#CI | 0.78 (≈ 3.17 µM) |
| O=[N+]([O-])c1ccc(-c2nnn(CC#CI)n2)cc1 | 0.39 (≈ 1.1 µM) |
| O=[N+]([O-])c1c(Cl)c(Cl)n(CC(I)=C(I)I)c1Cc1cc(Cl)cc(Cl)c1O | 25 (≈ 32.3 µM) |
| Cc1nnnn1CC#CI | 3.13 (≈ 12.6 µM) |
